One test concerns the target T1, Fms (Homo sapiens, UniProt P07333).
T1 construct: purchased Upstate Biotech 14-551
Description: Fms biochemical assay (AlphaScreen or 33P-ATP). The following applies: under the test conditions employed; read-out: IC50 toward kinase Fms. The source says: Each sample was at 5% DMSO.
(In general: Alpha assays give light when donor and acceptor beads are brought close together.)

Another test addresses T2, Kit (Homo sapiens, UniProt P10721).
T2 construct: P1332.N6 BI PTP KIT M552-K948-X COD; made in house; host or cells: E. coli BL21(DE3)RIL, co-expressed with PTP1B
Nature of the test: c-kit biochemical assay (AlphaScreen or 33P-ATP). The following applies: under the test conditions employed; read-out: IC50 toward kinase Kit. Here is the method: C-kit kinase was at 1 ng per sample.
The c-kit enzyme used in the above assay was either obtained from Cell Signaling Technology (Cat. #7754) or was prepared as follows: A plasmid encoding kit (DNA and encoded protein sequences shown below) was engineered using common polymerase chain reaction (PCR) methods. Complementary DNA cloned from various human tissues were purchased from Invitrogen, and these were used as substrates in the PCR reactions. Specific custom synthetic oligonucleotide primers were designed to initiate the PCR product, and also to provide the appropriate restriction enzyme cleavage sites for ligation with the plasmids. The entire sequence encoding the enzyme was made through a gene synthesis procedure, using custom synthetic oligonucleotides covering the entire coding sequence (Invitrogen, see below).

The next test deals with T3, TrkA (Homo sapiens, UniProt P04629).
T3 construct: purchased Upstate Biotech 14-571
Description: TrkA biochemical assay (AlphaScreen). The following applies: under the test conditions employed; read-out: IC50 toward kinase TrkA. On the procedure: Compounds tested were dissolved in DMSO (1 μL) and added to a white 384-well plate (Costar #3705). […] Each sample was at 5% DMSO. The plate was then incubated for 40 minutes at room temperature.

Another test deals with HGK (Homo sapiens, UniProt O95819). Nature of the test: HGK (MAP4K4) biochemical assay (AlphaScreen). The following applies: under the test conditions employed; read-out: IC50 toward kinase HGK. On the procedure: Substrate was 10 nM biotin-ERM (T567/T564/T558, Cell Signaling, Inc., cat#1344). MAP4K4 kinase was at 0.5 ng per sample. After incubation of the kinase reaction for 40 min at room temperature, 5 μl of donor beads and protein A acceptor beads (Perkin Elmer Life Science, cat#67606017) at final concentration 1 μg/ml in stop buffer (20 mM Tris, pH 7.4, 200 mM Nacl, 100 mM EDTA, 0.03% BSA) was added, along with Phospho-ERM Antibody (T567/T564/T558, Cell Signaling, Inc., cat#3141) at 1:1000 dilution. […] Phosphorylated substrate results in binding of the antibody which binds to protein A acceptor bead and association of the donor and acceptor beads is such that the signal correlates with kinase activity.

This note sets out measurements from patent US7872018B2, “Compounds and methods for kinase modulation, and indications therefor” (Plexxikon, Inc., priority 2006, dated 2011).

T2 sequence (P10721 552-948): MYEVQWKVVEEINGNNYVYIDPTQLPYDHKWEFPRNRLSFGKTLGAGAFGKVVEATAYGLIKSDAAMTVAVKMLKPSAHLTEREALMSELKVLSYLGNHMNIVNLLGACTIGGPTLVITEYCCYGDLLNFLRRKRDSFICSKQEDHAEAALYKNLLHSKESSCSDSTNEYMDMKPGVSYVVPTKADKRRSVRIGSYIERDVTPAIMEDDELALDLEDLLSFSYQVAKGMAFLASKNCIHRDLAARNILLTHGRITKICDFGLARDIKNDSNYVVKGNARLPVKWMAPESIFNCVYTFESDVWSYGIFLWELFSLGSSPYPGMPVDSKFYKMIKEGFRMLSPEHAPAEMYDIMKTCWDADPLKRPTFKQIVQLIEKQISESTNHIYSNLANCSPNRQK
T1 sequence (P07333 20-972): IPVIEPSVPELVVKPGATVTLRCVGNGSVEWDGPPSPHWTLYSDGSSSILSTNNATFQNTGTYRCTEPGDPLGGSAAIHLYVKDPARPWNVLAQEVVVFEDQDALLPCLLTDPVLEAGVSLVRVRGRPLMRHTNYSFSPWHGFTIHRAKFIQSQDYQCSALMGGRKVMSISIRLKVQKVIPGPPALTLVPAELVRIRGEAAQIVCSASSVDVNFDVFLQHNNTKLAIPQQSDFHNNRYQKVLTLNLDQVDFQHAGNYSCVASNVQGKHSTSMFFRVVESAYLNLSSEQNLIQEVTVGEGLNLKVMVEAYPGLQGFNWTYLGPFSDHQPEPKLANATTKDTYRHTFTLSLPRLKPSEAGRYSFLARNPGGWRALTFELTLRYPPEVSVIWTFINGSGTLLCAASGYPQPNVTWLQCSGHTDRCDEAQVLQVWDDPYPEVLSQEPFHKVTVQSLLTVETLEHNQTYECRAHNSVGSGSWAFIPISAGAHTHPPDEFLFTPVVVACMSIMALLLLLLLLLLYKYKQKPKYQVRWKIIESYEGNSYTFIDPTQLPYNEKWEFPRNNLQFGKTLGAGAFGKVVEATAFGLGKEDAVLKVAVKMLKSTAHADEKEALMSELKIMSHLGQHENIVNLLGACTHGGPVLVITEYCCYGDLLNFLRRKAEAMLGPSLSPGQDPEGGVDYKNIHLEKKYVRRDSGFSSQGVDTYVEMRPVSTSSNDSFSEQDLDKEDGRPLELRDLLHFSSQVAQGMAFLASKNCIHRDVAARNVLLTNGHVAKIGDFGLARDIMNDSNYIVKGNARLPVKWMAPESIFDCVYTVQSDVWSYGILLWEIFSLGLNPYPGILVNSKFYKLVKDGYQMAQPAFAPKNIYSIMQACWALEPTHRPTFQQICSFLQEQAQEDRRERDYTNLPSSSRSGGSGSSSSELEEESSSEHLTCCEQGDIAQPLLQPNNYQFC
T3 sequence (P04629 33-796): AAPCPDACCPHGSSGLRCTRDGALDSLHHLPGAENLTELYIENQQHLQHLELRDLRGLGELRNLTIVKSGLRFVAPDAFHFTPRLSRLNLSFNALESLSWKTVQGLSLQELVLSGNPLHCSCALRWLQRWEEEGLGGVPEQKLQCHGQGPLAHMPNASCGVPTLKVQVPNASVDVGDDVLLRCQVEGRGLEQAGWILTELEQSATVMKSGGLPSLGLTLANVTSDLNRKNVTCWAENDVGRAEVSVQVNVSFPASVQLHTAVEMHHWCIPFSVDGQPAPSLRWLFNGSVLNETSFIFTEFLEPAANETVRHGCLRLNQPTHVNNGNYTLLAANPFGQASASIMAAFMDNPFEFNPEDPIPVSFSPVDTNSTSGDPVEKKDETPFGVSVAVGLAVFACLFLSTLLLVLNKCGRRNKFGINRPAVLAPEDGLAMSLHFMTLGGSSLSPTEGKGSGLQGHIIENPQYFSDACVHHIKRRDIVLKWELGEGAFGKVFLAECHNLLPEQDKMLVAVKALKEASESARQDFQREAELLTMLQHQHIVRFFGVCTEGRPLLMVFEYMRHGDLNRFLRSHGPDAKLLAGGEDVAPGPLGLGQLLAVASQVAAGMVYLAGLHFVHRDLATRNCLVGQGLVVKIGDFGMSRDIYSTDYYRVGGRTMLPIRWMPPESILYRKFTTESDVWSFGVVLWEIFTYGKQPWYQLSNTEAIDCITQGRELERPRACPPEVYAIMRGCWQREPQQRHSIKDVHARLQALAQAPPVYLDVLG
Chain of HGK (O95819 whole entry): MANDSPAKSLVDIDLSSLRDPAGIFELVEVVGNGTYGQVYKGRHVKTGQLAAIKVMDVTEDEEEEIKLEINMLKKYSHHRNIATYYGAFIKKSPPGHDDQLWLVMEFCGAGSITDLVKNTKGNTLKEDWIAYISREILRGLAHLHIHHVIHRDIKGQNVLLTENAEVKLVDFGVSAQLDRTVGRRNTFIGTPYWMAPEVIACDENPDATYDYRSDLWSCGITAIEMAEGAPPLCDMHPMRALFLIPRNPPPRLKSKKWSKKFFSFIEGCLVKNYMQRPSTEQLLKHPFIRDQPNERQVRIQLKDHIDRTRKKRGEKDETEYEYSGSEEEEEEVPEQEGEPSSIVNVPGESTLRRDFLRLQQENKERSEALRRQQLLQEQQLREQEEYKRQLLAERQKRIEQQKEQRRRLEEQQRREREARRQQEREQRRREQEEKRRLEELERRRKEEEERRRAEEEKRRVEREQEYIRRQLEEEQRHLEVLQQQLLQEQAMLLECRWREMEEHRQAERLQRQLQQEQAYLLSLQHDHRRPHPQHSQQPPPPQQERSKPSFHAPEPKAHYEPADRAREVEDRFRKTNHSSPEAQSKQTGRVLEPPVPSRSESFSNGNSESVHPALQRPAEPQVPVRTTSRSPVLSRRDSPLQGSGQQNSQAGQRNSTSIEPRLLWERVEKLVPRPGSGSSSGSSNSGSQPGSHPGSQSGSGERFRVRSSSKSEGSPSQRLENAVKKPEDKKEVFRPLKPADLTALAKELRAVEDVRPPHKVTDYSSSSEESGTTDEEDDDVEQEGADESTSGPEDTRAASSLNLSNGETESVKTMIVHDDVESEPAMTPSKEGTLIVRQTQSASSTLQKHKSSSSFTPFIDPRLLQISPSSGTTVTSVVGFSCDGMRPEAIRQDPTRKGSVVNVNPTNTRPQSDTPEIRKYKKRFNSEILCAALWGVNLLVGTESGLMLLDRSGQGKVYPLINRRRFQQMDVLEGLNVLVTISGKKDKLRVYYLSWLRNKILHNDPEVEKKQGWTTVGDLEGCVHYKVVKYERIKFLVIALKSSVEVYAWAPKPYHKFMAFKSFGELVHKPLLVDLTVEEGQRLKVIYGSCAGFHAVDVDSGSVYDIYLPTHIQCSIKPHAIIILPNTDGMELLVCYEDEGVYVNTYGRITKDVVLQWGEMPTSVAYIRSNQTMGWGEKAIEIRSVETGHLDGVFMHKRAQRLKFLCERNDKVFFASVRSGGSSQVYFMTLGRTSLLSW

`CCOc1c(OCc2ccccc2F)cccc1C(=O)c1c[nH]c2ncccc12` [P-2127, [2-Ethoxy-3-(2-fluoro-benzyloxy)-phenyl]-(1H-pyrrolo[2,3-b]pyridin-3-yl)-methanone]: the IC50 (in general, the midpoint of a concentration-inhibition curve) on Fms was not above 10 µM.

On to `CCOc1c(OCc2cc(C)n(C)n2)cccc1C(=O)c1c[nH]c2ncccc12` [P-2134, [3-(1,5-Dimethyl-1H-pyrazol-3-ylmethoxy)-2-ethoxy-phenyl]-(1H-pyrrolo[2,3-b]pyridin-3-yl)-methanone], for which the IC50 on Fms was not above 10 µM.

In the case of `O=C(c1cccc(OCc2c(F)cc(F)cc2F)c1OCC1CC1)c1c[nH]c2ncc(Cl)cc12` [P-2141, (5-Chloro-1H-pyrrolo[2,3-b]pyridin-3-yl)-[2-cyclopropylmethoxy-3-(2,4,6-trifluoro-benzyloxy)-phenyl]-methanone], the IC50 at Fms was not above 10 µM.

As to `CCOc1c(OCc2ccc(Cl)cc2F)cccc1C(=O)c1c[nH]c2ncccc12` [P-2123, [3-(4-Chloro-2-fluoro-benzyloxy)-2-ethoxy-phenyl]-(1H-pyrrolo[2,3-b]pyridin-3-yl)-methanone], the concentration for half-maximal inhibition (IC50) at Fms was not above 10 µM.

For the molecule `CCOc1c(OCc2ccc(-n3ccnc3)cc2)cccc1C(=O)c1c[nH]c2ncccc12` [P-2131, [2-Ethoxy-3-(4-imidazol-1-yl-benzyloxy)-phenyl]-(1H-pyrrolo[2,3-b]pyridin-3-yl)-methanone], the IC50 at Fms was not above 10 µM.

On to `Fc1ccc(OCC(F)(F)F)c(Cl)c1Cc1c[nH]c2ncccc12` [P-2148, 3-[2-Chloro-6-fluoro-3-(2,2,2-trifluoro-ethoxy)-benzyl]-1H-pyrrolo[2,3-b]pyridine], for which the IC50 on Fms and at Kit was not above 10 µM in each case.

As for `COc1cc(Cc2c[nH]c3ncccc23)c(F)cc1OCc1cccnc1` [P-2038, 3-[2-Fluoro-5-methoxy-4-(pyridin-3-ylmethoxy)-benzyl]-1H-pyrrolo[2,3-b]pyridine], on TrkA, the IC50 was not above 10 µM.

`O=C(c1cccc(OCc2ccc(Cl)cc2F)c1OCC1CC1)c1c[nH]c2ncccc12` [P-2120]: the IC50 on Fms and on Kit was not above 10 µM in each case.

With `CCOc1c(OCc2ccc(Cl)cc2Cl)cccc1C(=O)c1c[nH]c2ncccc12` [P-2130, [3-(2,4-Dichloro-benzyloxy)-2-ethoxy-phenyl]-(1-pyrrolo[2,3-b]pyridin-3-yl)-methanone], the IC50 on Fms and at Kit was not above 10 µM each time.

Consider `CCOc1c(OC(C)c2ccccc2F)cccc1C(=O)c1c[nH]c2ncccc12` (centres unmarked) [P-2133, {2-Ethoxy-3-[1-(2-fluoro-phenyl)-ethoxy]-phenyl}-(1H-pyrrolo[2,3-b]pyridin-3-yl)-methanone], for which the IC50 at Fms was not above 10 µM.

`CCOc1c(OCCCN2CCOCC2)cccc1C(=O)c1c[nH]c2ncccc12` [P-2126, [2-Ethoxy-3-(3-morpholin-4-yl-propoxy)-phenyl]-(1H-pyrrolo[2,3-b]pyridin-3-yl)-methanone]: the IC50 on Fms is not above 10 µM.

In the case of `CCOc1c(OCc2c(F)cc(F)cc2F)cccc1C(=O)c1c[nH]c2ncccc12` [P-2137, [2-Ethoxy-3-(2,4,6-trifluoro-benzyloxy)-phenyl]-(1H-pyrrolo[2,3-b]pyridin-3-yl)-methanone], the IC50 at Fms and on Kit was not above 10 µM throughout.

As for `CCOc1c(OCc2ccc(F)cc2F)cccc1C(=O)c1c[nH]c2ncccc12` [P-2132, [3-(2,4-Difluoro-benzyloxy)-2-ethoxy-phenyl]-(1H-pyrrolo[2,3-b]pyridin-3-yl)-methanone], on Fms, the IC50 is not above 10 µM.

In the case of `Fc1ccc(OCc2ccccc2)c(F)c1Cc1c[nH]c2ncccc12` [P-1803, 3-(3-Benzyloxy-2,6-difluoro-benzyl)-1H-pyrrolo[2,3-b]pyridine], the IC50 on Fms was not above 10 µM.

Take `COc1cnc2[nH]cc(Cc3cc(OC)c(OCc4ccc(Cl)cc4F)cc3F)c2c1` [P-1885, 3-[4-(4-Chloro-2-fluoro-benzyloxy)-2-fluoro-5-methoxy-benzyl]-5-methoxy-1H-pyrrolo[2,3-b]pyridine]: on TrkA, the concentration for half-maximal inhibition (IC50) was not above 10 µM.

With `COc1cc(Cc2c[nH]c3ncccc23)c(F)cc1OCc1ccc(Cl)cc1` [P-1844, 3-[4-(4-Chloro-benzyloxy)-2-fluoro-5-methoxy-benzyl]-1H-pyrrolo[2,3-b]pyridine], the IC50 on TrkA is not above 10 µM.

Consider `COc1cc(Cc2c[nH]c3ncc(Cl)cc23)c(F)cc1OCc1nc2ccccc2[nH]1` [P-1976, 2-[4-(5-Chloro-1H-pyrrolo[2,3-b]pyridin-3-ylmethyl)-5-fluoro-2-methoxy-phenoxymethyl]-1H-benzoimidazole], for which the IC50 on TrkA is not above 10 µM.

Take `CCOc1c(OCc2sc(C)nc2C)cccc1C(=O)c1c[nH]c2ncccc12` [P-2124, [3-(2,4-Dimethyl-thiazol-5-ylmethoxy)-2-ethoxy-phenyl]-(1H-pyrrolo[2,3-b]pyridin-3-yl)-methanone]: on Fms, the IC50 is not above 10 µM.

As for `COc1cc(Cc2c[nH]c3ncccc23)c(F)cc1OCc1nc2ccccc2[nH]1` [P-1978, 2-[5-Fluoro-2-methoxy-4-(1H-pyrrolo[2,3-b]pyridin-3-ylmethyl)-phenoxymethyl]-1H-benzoimidazole], the IC50 on TrkA is not above 10 µM.

As to `COc1cc(Cc2c[nH]c3ncccc23)ccc1OCc1ccc(CN2CCN(C)CC2)cc1` [P-1821, 3-{3-Methoxy-4-[4-(4-methyl-piperazin-1-ylmethyl)-benzyloxy]-benzyl}-1H-pyrrolo[2,3-b]pyridine], the IC50 on Fms was not above 10 µM.

For the molecule `CCOc1c(OCc2ccc(N3CCOCC3)nc2)cccc1C(=O)c1c[nH]c2ncccc12` [P-2128, [2-Ethoxy-3-(6-morpholin-4-yl-pyridin-3-ylmethoxy)-phenyl]-(1H-pyrrolo[2,3-b]pyridin-3-yl)-methanone], at Fms, the IC50 was not above 10 µM.

In the case of `CCOc1c(OC(C)c2ccncc2)cccc1C(=O)c1c[nH]c2ncccc12` (centres unmarked) [P-2135, [2-Ethoxy-3-(1-pyridin-4-yl-ethoxy)-phenyl]-(1H-pyrrolo[2,3-b]pyridin-3-yl)-methanone], the IC50 on Fms was not above 10 µM.

For `COc1cc(Cc2c[nH]c3ncc(Cl)cc23)c(F)cc1OCc1nc2cc(F)ccc2[nH]1` [P-2179, 2-[4-(5-Chloro-1H-pyrrolo[2,3-b]pyridin-3-ylmethyl)-5-fluoro-2-methoxy-phenoxymethyl]-5-fluoro-1H-benzoimidazole], the IC50 at TrkA and on Fms was not above 10 µM each time.

Regarding `CCOc1c(OCc2ccc(C(F)(F)F)nc2)cccc1C(=O)c1c[nH]c2ncccc12` [P-2129, [2-Ethoxy-3-(6-trifluoromethyl-pyridin-3-ylmethoxy)-phenyl]-(1H-pyrrolo[2,3-b]pyridin-3-yl)-methanone], the half-maximal inhibitory concentration (IC50) at Fms was not above 10 µM.

For the molecule `O=C(c1cccc(OCc2ccc(Cl)cc2F)c1OCC(F)(F)F)c1c[nH]c2ncccc12` [P-2139, [3-(4-Chloro-2-fluoro-benzyloxy)-2-(2,2,2-trifluoro-ethoxy)-phenyl]-(1H-pyrrolo[2,3-b]pyridin-3-yl)-methanone], the IC50 on Fms and at Kit was not above 10 µM throughout.

For `O=C(c1cccc(OCc2ccc(Cl)cc2F)c1OCC(F)F)c1c[nH]c2ncccc12` [P-2119, [3-(4-Chloro-2-fluoro-benzyloxy)-2-(2,2-difluoro-ethoxy)-phenyl]-(1H-pyrrolo[2,3-b]pyridin-3-yl)-methanone], the half-inhibitory concentration (IC50) on Fms was not above 10 µM.

`O=C(c1cccc(OCc2ccc(Cl)cc2)c1OCCF)c1c[nH]c2ncccc12` [P-2118, [3-(4-Chloro-benzyloxy)-2-(2-fluoro-ethoxy)-phenyl]-(1H-pyrrolo[2,3-b]pyridin-3-yl)-methanone]: the IC50 on Fms was not above 10 µM.

Regarding `COc1ccc2[nH]c(COc3cc(F)c(Cc4c[nH]c5ncccc45)cc3OC)nc2c1` [P-2113, 2-[5-Fluoro-2-methoxy-4-(1H-pyrrolo[2,3-b]pyridin-3-ylmethyl)-phenoxymethyl]-6-methoxy-1H-benzoimidazole], the IC50 at HGK and on Fms was not above 10 µM throughout.

Regarding `CCOc1c(OC(C)c2ccc(Cl)cc2Cl)cccc1C(=O)c1c[nH]c2ncccc12` (centres unmarked) [P-2138, {3-[1-(2,4-Dichloro-phenyl)-ethoxy]-2-ethoxy-phenyl}-(1H-pyrrolo[2,3-b]pyridin-3-yl)-methanone], the IC50 on Fms is not above 10 µM.

With `CCOc1c(OCc2cc(C)nn2C)cccc1C(=O)c1c[nH]c2ncccc12` [P-2125, [3-(2,5-Dimethyl-2H-pyrazol-3-ylmethoxy)-2-ethoxy-phenyl]-(1H-pyrrolo[2,3-b]pyridin-3-yl)-methanone], the IC50 at Fms was not above 10 µM.

Take `CCOc1c(OCc2cccc(C)n2)cccc1C(=O)c1c[nH]c2ncccc12` [P-2122, [2-Ethoxy-3-(6-methyl-pyridin-2-ylmethoxy)-phenyl]-(1H-pyrrolo[2,3-b]pyridin-3-yl)-methanone]: the half-inhibitory concentration (IC50) at Fms is not above 10 µM.
